Source: ChEMBL document CHEMBL3885861, “Open TG-GATES”

Species: Rattus norvegicus
Experiment: Open TG-GATES - Regimen: Single
Type: toxicity, organism-based, Sprague-Dawley
Parameters: regimen Single, gender Male, age 6 weeks
Details: in vivo, po, 75 mg/kg, route gavage, dose level High; for APTT / Bas / Eos / Fbg / Hb / Ht / Lym / MCH / MCHC / MCV / Mono / Neu / PT / Plat / RBC / Ret / WBC: tissue Blood; for KIDNEY_L / KIDNEY_R / KIDNEY_TOTAL: tissue Kidney; for LIVER: tissue Liver; for A/G / ALP / ALT / AST / BUN / CRE / Ca / Cl / DBIL / GLC / IP / K / LDH / Na / PL / RALB / TBIL / TC / TG / TP / gamma-GTP: tissue Plasma

## NC1=NC(=O)C(c2ccccc2)O1 (stereo unspecified) [PEMOLINE]
3 h
  TERMINAL_BW: 208.2 g
  APTT: 16.9 s
  Bas: 0%
  Eos: 0.8%
  Fbg: 306.8 mg/dL
  Hb: 13.3 g/dL
  Ht: 39.3%
  Lym: 74.8%
  MCH: 21.9 pg
  MCHC: 33.9%
  MCV: 64.8 fL
  Mono: 2.6%
  Neu: 20.8%
  PT: 13.3 s
  Plat: 129.3 x10_4/uL
  RBC: 606.8 x10_4/ul
  Ret: 9.4%
  WBC: 99.2 x10_2/uL
  KIDNEY_L: 0.9 g
  KIDNEY_R: 0.9 g
  KIDNEY_TOTAL: 1.7 g
  LIVER: 8.9 g
  A/G: 1
  ALP: 1509.8 IU/L
  ALT: 46.4 IU/L
  AST: 87.6 IU/L
  BUN: 7.8 mg/dL
  CRE: 0.2 mg/dL
  Ca: 10.4 mg/dL
  Cl: 108.2 meq/L
  DBIL: 0.012 mg/dL
  GLC: 188.6 mg/dL
  IP: 8.2 mg/dL
  K: 3.7 meq/L
  LDH: 74.6 IU/L
  Na: 141.6 meq/L
  PL: 132.8 mg/dL
  RALB: 2.8 g/dL
  TBIL: 0.042 mg/dL
  TC: 80 mg/dL
  TG: 36.8 mg/dL
  TP: 5.5 g/dL
  gamma-GTP: 1.8 IU/L
6 h
  TERMINAL_BW: 208.1 g
  APTT: 17.1 s
  Bas: 0%
  Eos: 1%
  Fbg: 280.8 mg/dL
  Hb: 13.6 g/dL
  Ht: 40.2%
  Lym: 75.2%
  MCH: 22 pg
  MCHC: 33.9%
  MCV: 64.9 fL
  Mono: 3%
  Neu: 20%
  PT: 13.6 s
  Plat: 118.6 x10_4/uL
  RBC: 620.2 x10_4/ul
  Ret: 9.3%
  WBC: 89.6 x10_2/uL
  KIDNEY_L: 0.9 g
  KIDNEY_R: 0.9 g
  KIDNEY_TOTAL: 1.8 g
  LIVER: 7.6 g
  A/G: 1
  ALP: 1507.8 IU/L
  ALT: 40.6 IU/L
  AST: 104.8 IU/L
  BUN: 9 mg/dL
  CRE: 0.2 mg/dL
  Ca: 10.3 mg/dL
  Cl: 108.4 meq/L
  DBIL: 0.01 mg/dL
  GLC: 168.8 mg/dL
  IP: 9.3 mg/dL
  K: 3.7 meq/L
  LDH: 110.8 IU/L
  Na: 140.8 meq/L
  PL: 119 mg/dL
  RALB: 2.7 g/dL
  TBIL: 0.05 mg/dL
  TC: 77.4 mg/dL
  TG: 14 mg/dL
  TP: 5.4 g/dL
  gamma-GTP: 1 IU/L
